Source: the NIST ThermoML archive (doi:10.1021/je100554g)

Key:
[1] = 101.33 kPa, Liquid, Pulse-echo method
[2] = xn = mol fraction of the nth substance listed; conditions: 101 kPa, Liquid, Pulse-echo method

[Cl-].[Li+] [lithium chloride]
[1]
Conditions	speed of sound [m/s]
950 K	1988
976 K	1973
1003 K	1945
1030 K	1924
1062 K	1894
1082 K	1879
1110 K	1858
1148 K	1825
1181 K	1791

[Cl][Nd]([Cl])[Cl] [neodymium(III) chloride]
[1]
Conditions	speed of sound [m/s]
1044 K	1248
1045 K	1259
1075 K	1237
1083 K	1227
1099 K	1227
1148 K	1223
1165 K	1212
1184 K	1188
1218 K	1190

[Cl][Nd]([Cl])[Cl] [neodymium(III) chloride] + [Cl-].[Cs+]
[2]
Conditions	speed of sound [m/s]
913 K, x1 = 0.45	1110
968 K, x1 = 0.45	1080
998 K, x1 = 0.8	1205
1008 K, x1 = 0.45	1053
1043 K, x1 = 0.8	1172
1061 K, x1 = 0.45	1026
1083 K, x1 = 0.8	1148
1112 K, x1 = 0.45	998
1123 K, x1 = 0.8	1129
1138 K, x1 = 0.45	980
1143 K, x1 = 0.8	1115
1147 K, x1 = 0.25	969
1169 K, x1 = 0.25	961
1188 K, x1 = 0.25	953
1207 K, x1 = 0.25	949
1226 K, x1 = 0.25	941
1245 K, x1 = 0.25	934

[Cl][Nd]([Cl])[Cl] [neodymium(III) chloride] + [Cl-].[K+]
[2]
Conditions	speed of sound [m/s]
1007 K, x1 = 0.75	1275
1037 K, x1 = 0.75	1259
1053 K, x1 = 0.37	1283
1058 K, x1 = 0.25	1370
1063 K, x1 = 0.5	1259
1067 K, x1 = 0.75	1240
1076 K, x1 = 0.25	1355
1080 K, x1 = 0.37	1260
1088 K, x1 = 0.5	1240
1096 K, x1 = 0.25	1340
1110 K, x1 = 0.37	1250
1110 K, x1 = 0.75	1225
1118 K, x1 = 0.25	1315
1124 K, x1 = 0.5	1230
1128 K, x1 = 0.37	1241
1139 K, x1 = 0.75	1210
1145 K, x1 = 0.37	1223
1146 K, x1 = 0.25	1300
1150 K, x1 = 0.5	1214
1163 K, x1 = 0.75	1197
1173 K, x1 = 0.37	1212
1176 K, x1 = 0.25	1256
1178 K, x1 = 0.37	1200
1185 K, x1 = 0.5	1190
1186 K, x1 = 0.25	1260
1203 K, x1 = 0.5	1186
1213 K, x1 = 0.25	1234

[Cl][Nd]([Cl])[Cl] [neodymium(III) chloride] + [Cl-].[Li+]
[2], x1 = 0.5
Conditions	speed of sound [m/s]
995 K	1395
1033 K	1374
1108 K	1350
1133 K	1331
1167 K	1326

[Cl][Nd]([Cl])[Cl] [neodymium(III) chloride] + [Cl-].[Na+]
[2]
Conditions	speed of sound [m/s]
1009 K, x1 = 0.365	1450
1048 K, x1 = 0.365	1418
1053 K, x1 = 0.2	1520
1063 K, x1 = 0.75	1290
1073 K, x1 = 0.2	1502
1073 K, x1 = 0.75	1285
1074 K, x1 = 0.365	1389
1090 K, x1 = 0.44	1350
1100 K, x1 = 0.365	1368
1103 K, x1 = 0.2	1465
1103 K, x1 = 0.44	1340
1103 K, x1 = 0.75	1270
1115 K, x1 = 0.44	1325
1123 K, x1 = 0.44	1330
1127 K, x1 = 0.2	1476
1128 K, x1 = 0.365	1354
1133 K, x1 = 0.44	1325
1133 K, x1 = 0.75	1256
1143 K, x1 = 0.2	1447
1143 K, x1 = 0.44	1322
1150 K, x1 = 0.44	1307
1154 K, x1 = 0.75	1250
1155 K, x1 = 0.365	1357
1173 K, x1 = 0.2	1420
1175 K, x1 = 0.365	1340
1176 K, x1 = 0.75	1240
